{"source": "patent US9125916B2", "about": "“Methods of treating hypertrophic cardiomyopathy” (Gilead Sciences, Inc., priority 2013, dated 2015)", "origin": "cited, not measured here", "test_system": "human cardiac tissue derived from patients with symptomatic HCM", "details": "Circulation 2013, 127 (5):575-584"}
{"smiles": "COc1ccccc1OCC(O)CN1CCN(CC(=O)Nc2c(C)cccc2C)CC1", "note": "(stereo not shown) [ranolazine]", "values": [{"measurement": "effect of inhibition of late INa on electrical and mechanical abnormalities characteristic of HCM", "value": "reverse multiple electrical and mechanical abnormalities characteristic of the disease"}]}
